Results on one substance are retold here after patent publication US4740498A, “Fibronectin preparations” (Green Cross Corporation, priority 1984, dated 1988).

The test system of the assay is corneal epithelium of rabbits. Briefly: Therapeutic effect in model of corneal disturbance (refrigeration trauma on the corneal epithelium). Particulars: 400 μg/ml into the eyes, FN = eye drops of Example 2, albumin = control. The class given is in vivo. As to the method: The therapeutic effect of the FN preparations of the present invention was examined using a model of corneal disturbance in rabbits. The model was prepared by applying liquid nitrogen to the eyes of rabbits to cause refrigeration trauma on the corneal epithelium. The FN eye drops prepared in Example 2 were administered into the eyes thus suffering from corneal disturbance at a dose of 400 μg-FN/ml, and the wound surface area was measured with the passage of time. As a control, 400 μg/ml of albumin was used.

On to Albumin, for which the “Wound Surface Area, 0 Day” value (0 Day) amounted to 45 mm^2. Besides, under “1 Day”, the “Wound Surface Area, 1 Day” value was 31 mm^2. Moreover, the “Wound Surface Area, 2 Days” value (2 Days) turned out to be 33 mm^2. For the same substance, the “Wound Surface Area, 3 Days” value (3 Days) was found to be 25 mm^2. Also, the “Wound Surface Area, 4 Days” value (4 Days) is recorded as 14 mm^2.
